Test results reported in article PMC6069109, “An Aspartate-Specific Solute-Binding Protein Regulates Protein Kinase G Activity To Control Glutamate Metabolism in Mycobacteria” (mBio, 2018).
Like-named read-outs stand apart in the source and are kept apart here.

Tests used:
Assay type in all cases: binding
GlnH [1] = target: T1, GlnH (Mycobacterium tuberculosis, UniProt P96257); assay: crystal structure, ITC, thermal melt shift
[2] = target: T2, C. glutamicum GlnH (GlnHcg) (Corynebacterium glutamicum, UniProt Q8NM30); assay: intrinsic tryptophan fluorescence, thermal melt shift
T2 construct: gene Cgl2750; soluble domain, N-terminal His6 tag
T2 sequence (Q8NM30 entry or part of it): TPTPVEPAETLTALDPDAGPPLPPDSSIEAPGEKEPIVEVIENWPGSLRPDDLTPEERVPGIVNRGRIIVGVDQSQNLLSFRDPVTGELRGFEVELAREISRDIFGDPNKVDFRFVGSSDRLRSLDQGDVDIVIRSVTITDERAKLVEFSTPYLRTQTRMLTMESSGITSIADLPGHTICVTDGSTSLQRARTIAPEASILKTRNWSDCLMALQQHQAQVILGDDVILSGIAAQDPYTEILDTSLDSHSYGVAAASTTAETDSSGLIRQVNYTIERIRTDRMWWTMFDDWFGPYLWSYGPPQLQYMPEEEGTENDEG

GlnH [3] = target: T1, GlnH; assay: crystal structure, thermal melt shift

T1 sequence (P96257 27-328 limits assumed): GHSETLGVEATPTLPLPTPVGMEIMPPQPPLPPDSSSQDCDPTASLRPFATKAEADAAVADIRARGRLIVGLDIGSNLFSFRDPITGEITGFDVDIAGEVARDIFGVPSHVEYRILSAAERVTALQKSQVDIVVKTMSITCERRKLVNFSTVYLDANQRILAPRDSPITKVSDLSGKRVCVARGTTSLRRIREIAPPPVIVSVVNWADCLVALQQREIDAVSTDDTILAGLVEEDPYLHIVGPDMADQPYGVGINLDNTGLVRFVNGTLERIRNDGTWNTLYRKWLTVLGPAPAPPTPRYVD

With `N[C@@H](CCC(=O)O)C(=O)O` [glutamate] the Kd (GlnH [1]) was 15.2 ± 5.7 µM and the Kd [2] was 2060 µM.
`N[C@@H](CC(=O)O)C(=O)O` [aspartate] was tested, and the Kd (GlnH [1]; read-out: Kd (μM)^a) was 4.8 ± 0.6 µM and the Kd ([2]; read-out: Kd (μM)^a) was 550 ± 90 µM.
For `NC(=O)C[C@H](N)C(=O)O` [asparagine], the “crystal structure, thermal melt shift” value (GlnH [3]) was 6H1U (GlnH with Asp), 6H20 (GlnH with Asn), and 6H2T (GlnH with Glu).
